These results are taken from patent EP4810494A1, “HPK1 DEGRADATION AGENT AND USE THEREOF IN FIELD OF MEDICINE” (Haisco Pharmaceutical Group Co., Ltd., priority 2023, dated 2025).

A short description of series [1]: Pharmacokinetic test in mice. The conditions noted are these: mouse, plasma, po, i. g., 10 mg/kg. It counts as in vivo, ICR mice. Put shortly: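 Male ICR mice (20-35 g), fasted overnight and fed 4 h post-dose, received a single intravenous or intragastric dose. Orbital blood into EDTA-K2 tubes at 0–24 h; plasma quantified by LC-MS/MS to derive PK parameters and bioavailability.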

In series [2] the target is T1, HPK1 protein (Homo sapiens, UniProt Q92918).
T1 construct: host or cells: Jurkat cells
Put plainly: Detection of HPK1 protein expression level in Jurkat cells (24 h). It counts as cell-based. To be noted: 24 hours incubation. In outline: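 Jurkat cells at 5 × 10^5 cells/well were exposed to compounds for 24 h at 37 °C, with vehicle medium containing 0.2% DMSO as control. HPK1 in lysates (0.2 mg/mL) was measured by automated quantitative immunoassay and normalized to β-actin. Degradation was expressed relative to vehicle, and DC50 came from four-parameter fits.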

Series [3] deals with T2, HPK1 kinase (Homo sapiens, UniProt Q92918).
T2 construct: purchased Carna 07-410
T2 sequence (Q92918 1-346 limits assumed): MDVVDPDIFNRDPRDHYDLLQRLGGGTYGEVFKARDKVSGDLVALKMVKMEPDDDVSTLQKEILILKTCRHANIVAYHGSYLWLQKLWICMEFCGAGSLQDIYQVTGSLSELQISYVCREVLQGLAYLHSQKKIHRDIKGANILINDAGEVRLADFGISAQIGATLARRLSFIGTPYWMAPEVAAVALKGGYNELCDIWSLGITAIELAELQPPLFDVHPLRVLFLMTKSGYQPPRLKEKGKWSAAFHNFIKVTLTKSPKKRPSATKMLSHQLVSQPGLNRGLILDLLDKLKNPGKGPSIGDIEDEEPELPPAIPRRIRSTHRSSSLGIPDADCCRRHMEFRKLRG
Put plainly: HPK1 kinase assay (Km concentration ATP). The conditions noted are these: for IC50: ATP at Km concentration (working concentration: 9 µM); for inhibitory activity against HPK1 kinase (in words): Km concentration ATP, conclusion. It counts as biochemical. The procedure:
Test example 3: HPK1 kinase assay (Km concentration ATP)
The kinase HPK1 (Carna, Cat.No 07-410) was prepared into 2× kinase solution using 1× kinase buffer. The substrate Fluorescein-PKC (Invitrogen, Cat. No. PV3506) and ATP (working concentration: 9 µM) (Sigma, Cat. No. 2383-5G) were prepared into 2× substrate solution using 1×kinase buffer. The detection reagent was diluted to 2-fold the final concentration using an antibody diluent. 100 nL of compounds at different concentrations and 5 µL of kinase solution were added to each well of a 384-well plate, and the mixture was incubated at room temperature for 10 minutes. After the incubation was completed, 5 µL of substrate solution was added to each well, and the resulting mixture was reacted at room temperature for 90 minutes. After the reaction was completed, 10 µL of detection reagent was added to each well to terminate the reaction, and the mixture was incubated at room temperature for 60 minutes. Fluorescence readings were detected using an Envision instrument with excitation at 320 nm and emission at 520 nm and 495 nm. IC50 value was calculated using XLFit excel add-in version 5.4.0.8 software. The calculation formula of the inhibition rate was shown in formula 3-1, where max is the Ratio of the DMSO control, min is the Ratio of the negative control without enzyme, and sample is the Ratio of the compound. Ratio = RFU520nm /RFU495nm [formula] Inhibition% = (max−sample)/(max−min) × 100% [formula] Table 3-1 Inhibitory activity of test compounds against HPK1 kinase

In series [4] the test system is IL-2 secretion by T cells. Put plainly: IL-2 detection assay in cells (ELISA, pan-T cells isolated from PBMCs). It is filed as cell-based. The conditions noted are these: IL-2, CD3 antibody-coated plate, 24 hours. The procedure: 9. IL-2 detection assay in cells
Activating effect of compounds on IL-2 secretion by T cells was evaluated using the ELISA method. Frozen PBMCs were thawed, and pan-T cells were isolated and purified using a T cell sorting kit (Stemcell, 17951). The cells were resuspended in 1640 complete medium and incubated in a 37°C&5%CO2 incubator overnight. A 96-well plate coated with an anti-human CD3 antibody (Thermo, 16-0037-38) at a final concentration of 5 µg/mL was incubated at 37°C for 2 h. The overnight-cultured cells were collected by centrifugation, the supernatant was discarded, and the cells were resuspended in 1640 complete medium, and seeded in the CD3 antibody-coated 96-well plate at a density of 10^5cells/well. The compounds at different concentrations were added, and the mixture was incubated in a 37°C&5%CO2 incubator for 24 hours. After the incubation was completed, the resulting mixture was centrifuged at 1000 rpm for 1 minute to collect the supernatant, and IL-2 was detected according to the ELISA instructions. DMSO without compounds was used as the control group to calculate the activation rate of the compounds, and prism was used to fit the activation curve. Maximum activation fold = maximum activation rate/control group. Table 9-1 Results of IL-2 activation by test compounds
(In general: In an ELISA, binding on a coated surface is turned into a signal by an enzyme label.)

Series [5] is described as follows: Pharmacokinetic test in rats. It is filed as in vivo, SD rats. The conditions noted are these: rat, plasma. The procedure:
Test example 7: Pharmacokinetic test in rats
Experimental animals: Male SD rats, 180-200 g, purchased from Chengdu Dossy Experimental Animals Co., Ltd. with the laboratory animal production license number of SCXK (CHUAN) 2020-030.
Experimental design: on the day of the experiment, the SD rats were randomly grouped according to their body weights. The animals were fasted but with water available overnight before the administration, and fed 4 h after the administration.
Vehicle for intragastric administration: 5% Solutol+5% TPGS+30% PEG400+60% (20% SBE-β-CD)
Blood was taken from the orbits of the […] at specified time points, and placed in an EDTAK2 centrifuge tube. Centrifugation was performed at 5000 rpm for 10 min, and the plasma was collected.
Blood sampling time points for the intravenous administration group were: 0, 5 min, 15 min, 30 min, 1 h, 2 h, 4 h, 6 h, 8 h and 24 h; blood sampling time points for the intragastric administration group were: 0, 5 min, 15 min, 30 min, 1 h, 2 h, 4 h, 6 h, 8 h and 24 h. Before analysis and detection, all the samples were stored at - 60°C or lower. The samples were analysed quantitatively by LC-MS/MS. Table 7-1 PK data of test compound drug in rats

Where a name gives a salt, the structure may show the parent alone. Bounds are passed on as bounds.

T1 sequence (Q92918 whole entry): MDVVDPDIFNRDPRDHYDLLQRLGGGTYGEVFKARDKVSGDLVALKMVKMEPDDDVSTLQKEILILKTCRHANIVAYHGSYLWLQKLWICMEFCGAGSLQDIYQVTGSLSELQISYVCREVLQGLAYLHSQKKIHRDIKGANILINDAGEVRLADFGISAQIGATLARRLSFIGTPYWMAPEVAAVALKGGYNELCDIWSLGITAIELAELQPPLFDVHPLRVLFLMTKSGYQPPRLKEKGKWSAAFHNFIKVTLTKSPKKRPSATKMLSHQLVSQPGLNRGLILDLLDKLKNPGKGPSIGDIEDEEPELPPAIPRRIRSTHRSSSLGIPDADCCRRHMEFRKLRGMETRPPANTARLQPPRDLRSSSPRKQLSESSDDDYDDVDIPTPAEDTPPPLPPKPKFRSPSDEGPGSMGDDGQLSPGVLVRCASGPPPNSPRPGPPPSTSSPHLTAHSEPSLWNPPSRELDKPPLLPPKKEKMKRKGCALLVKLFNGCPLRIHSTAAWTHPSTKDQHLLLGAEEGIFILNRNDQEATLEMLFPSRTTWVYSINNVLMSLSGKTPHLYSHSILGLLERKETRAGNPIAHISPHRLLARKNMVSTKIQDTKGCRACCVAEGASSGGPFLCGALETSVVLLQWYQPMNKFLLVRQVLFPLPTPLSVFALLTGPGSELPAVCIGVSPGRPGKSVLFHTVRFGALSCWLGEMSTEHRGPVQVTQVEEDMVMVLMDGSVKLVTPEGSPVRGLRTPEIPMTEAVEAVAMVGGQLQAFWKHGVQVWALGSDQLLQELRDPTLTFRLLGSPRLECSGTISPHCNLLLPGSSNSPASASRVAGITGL

In the case of `O=C1CCN(c2cc3c(cc2F)N2CCN(CC4CCN(c5ccc(Nc6ccc(-c7cnc8cc(F)ccn78)c7c6C(=O)NC7)nc5)CC4)C[C@@H]2CC3)C(=O)N1` [Compound 5], in series [1], the AUC is 20000 ng·h/mL, the highest level (Cmax) was 1380 ng/mL and the half-life was 6.45 h. This molecule also had a DC50 in series [2] below 20 nM. In addition, in series [3], the IC50 is below 10 nM and the “inhibitory activity against HPK1 kinase (in words)” value (“inhibitory activity” below) is reported as “good inhibitory activity”.

Consider `O=C1CCN(c2ccc(N3CCN(CC4CCN(c5ccc(Nc6ccc(-c7cnc8cc(F)ccn78)c7c6C(=O)NC7)nc5)CC4)CC3)cc2F)C(=O)N1` [Trifluoroacetic acid salt of compound 2], for which, in series [1], the AUC came to 16800 ng·h/mL, the peak concentration (Cmax) stood at 1280 ng/mL and the half-life was 5.79 h. This molecule came in with a DC50 in series [2] below 20 nM. In addition, in series [3], the half-maximal inhibitory concentration (IC50) was below 10 nM and the “inhibitory activity” value is given as “good inhibitory activity”.

In series [1], `O=C1CCC(c2cc3c(cc2F)N2CCN(CC4CCN(c5ccc(Nc6ccc(-c7cnc8cc(F)ccn78)c7c6C(=O)NC7)nc5)CC4)C[C@@H]2CC3)C(=O)N1` (stereo partly shown) [Trifluoroacetic acid salt of compound 4] gave an exposure (AUC) of 15200 ng·h/mL, a Cmax of 1140 ng/mL and a half-life of 7.27 h. Moreover, the DC50 in series [2] was below 20 nM. Moreover, in series [3], the IC50 is below 10 nM and the “inhibitory activity” value is on record as “good inhibitory activity”.

For the molecule `O=C1CCN(c2cc3c(cc2F)N2CCN(CC4CCN(c5ccc(Nc6ccc(-c7cnc8cc(F)ccn78)c7c6C(=O)NC7)nc5)CC4)C[C@H]2CC3)C(=O)N1` [Trifluoroacetic acid salt of compound 6], the “Activation fold at 100 nM concentration” value in series [4] (100 nM) is on record as above 10. Also, in series [4] (maximum activation rate/control group), the Maximum activation fold was above 10. For the same molecule, in series [1], the AUC came to 20800 ng·h/mL, the peak concentration (Cmax) worked out at 1520 ng/mL and the half-life was 5.35 h. Also, in series [2], the DC50 is below 20 nM. In addition, in series [3], the IC50 is below 10 nM and the “inhibitory activity” value was “good inhibitory activity”. Also, in series [5] (IV, 2.5 mg/kg), the clearance is 9.78 mL/min/kg and the half-life is 6.58 h. Moreover, in series [5] (po, i. g., 10 mg/kg), the AUC stood at 8360 ng·h/mL, the highest level (Cmax) was 721 ng/mL and the half-life is 6.4 h.

Turning to `O=C1CCC(c2cc3c(cc2F)N2CCN(CC4CCN(c5ccc(Nc6ccc(-c7cnc8cc(F)ccn78)c7c6C(=O)NC7)nc5)CC4)C[C@H]2CC3)C(=O)N1` (stereo partly shown) [Trifluoroacetic acid salt of compound 3], the DC50 in series [2] is below 20 nM. Moreover, in series [3], the IC50 was below 10 nM and the “inhibitory activity” value is “good inhibitory activity”.

In series [1], `O=C1CCC(c2ccc(N3CCN(CC4CCN(c5ccc(Nc6ccc(-c7cnc8cc(F)ccn78)c7c6C(=O)NC7)nc5)CC4)CC3)cc2F)C(=O)N1` (racemic) [Trifluoroacetic acid salt of compound 1] showed an AUC of 14700 ng·h/mL, a maximum concentration (Cmax) of 1070 ng/mL and a half-life of 6.73 h. The DC50 in series [2] was below 20 nM. Besides, in series [3], the concentration for half-maximal inhibition (IC50) was below 10 nM and the “inhibitory activity” value is reported as “good inhibitory activity”.

One may read the AUC as concentration integrated over time. The low end stands for less exposure, the high end for more exposure. As usually defined, the Cmax is the peak of the concentration-time curve. One may read the half-life as how long it takes for the measured level to halve. In general, IC50 refers to the concentration needed to halve the response being measured. Read a low IC50 as greater potency. As a reminder, the clearance is the rate of elimination divided by the concentration. A higher clearance goes with a high capacity for elimination.
